# Measurements published in ChEMBL document CHEMBL1201862, “PubChem BioAssay data set” (2004).
# Calls of active or inactive are those of the source.
# Assays:
# [1] = molecular target: Metabotropic glutamate receptor 4 (Rattus norvegicus, UniProt P31423); test: Modulation of the Metabotropic Glutamate Receptor mGluR4: Rat PAM Potency. [Related pubchem assays (depositor defined):AID2437, AID2807]; type: functional
# Salmon testes DNA = test: acridine orange-DNA binding displacement – biochemical, fluorescence polarization, cherry-picked samples, set 2, artefact control for KSHV LANA DNA-binding inhibitor project, dose response (AID 504727); parameters: species or system Salmonidae
# ORF 73 = molecular target: T1, ORF 73 (Human herpesvirus 8, UniProt O40947); test: KSHV LANA DNA-binding disruption – biochemical, fluorescence polarization, cherry-picked samples, dose response (AID 504725); parameters: species or system Human gammaherpesvirus 8;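 also: fluorescence polarization of a labeled DNA duplex reporting LANA DNA binding; potency is for inhibitors that block LANA binding to the DNA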
# T1 sequence (O40947 whole entry): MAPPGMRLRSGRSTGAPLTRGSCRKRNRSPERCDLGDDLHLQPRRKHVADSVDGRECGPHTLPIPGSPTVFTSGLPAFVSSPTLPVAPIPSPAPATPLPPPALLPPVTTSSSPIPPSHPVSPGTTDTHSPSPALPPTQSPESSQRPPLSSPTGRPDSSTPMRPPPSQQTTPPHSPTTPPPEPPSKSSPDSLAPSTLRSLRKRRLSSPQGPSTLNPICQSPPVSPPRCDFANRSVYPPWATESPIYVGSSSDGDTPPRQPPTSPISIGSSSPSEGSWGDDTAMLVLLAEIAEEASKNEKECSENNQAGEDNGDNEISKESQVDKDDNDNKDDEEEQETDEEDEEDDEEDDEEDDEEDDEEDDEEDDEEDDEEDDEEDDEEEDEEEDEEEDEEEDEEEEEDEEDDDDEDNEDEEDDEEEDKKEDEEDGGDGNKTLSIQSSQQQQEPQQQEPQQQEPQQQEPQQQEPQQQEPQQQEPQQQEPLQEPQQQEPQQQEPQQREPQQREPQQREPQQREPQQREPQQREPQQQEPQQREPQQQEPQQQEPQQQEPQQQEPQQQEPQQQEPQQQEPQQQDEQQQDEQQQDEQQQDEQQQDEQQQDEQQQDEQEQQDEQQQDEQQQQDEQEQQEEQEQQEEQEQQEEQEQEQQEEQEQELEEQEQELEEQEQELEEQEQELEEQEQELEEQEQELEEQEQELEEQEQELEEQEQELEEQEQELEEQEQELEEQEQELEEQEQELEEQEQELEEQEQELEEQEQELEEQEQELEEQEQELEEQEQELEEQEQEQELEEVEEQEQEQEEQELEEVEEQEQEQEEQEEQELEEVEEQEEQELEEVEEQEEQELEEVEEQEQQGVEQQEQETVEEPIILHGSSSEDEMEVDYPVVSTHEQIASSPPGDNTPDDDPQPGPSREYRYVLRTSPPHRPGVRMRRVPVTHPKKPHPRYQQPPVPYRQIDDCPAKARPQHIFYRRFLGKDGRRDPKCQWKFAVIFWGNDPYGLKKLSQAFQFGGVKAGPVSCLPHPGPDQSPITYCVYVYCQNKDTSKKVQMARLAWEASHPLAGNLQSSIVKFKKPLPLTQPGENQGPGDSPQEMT
# Protein Rev = Protein Rev (Human immunodeficiency virus type 1 group M subtype B (isolate HXB2)(HIV-1), UniProt P04618); test: blockers of HIV Rev/RRE RNA complex – biochemical, fluorescence polarization, HIV-1, dose response (AID 434976); parameters: species or system Human immunodeficiency virus 1
# [2] = molecular target: Female germline-specific tumor suppressor gld-1 (Caenorhabditis elegans, UniProt Q17339); test: blockers of GLD-1/TGE RNA complex formation – biochemical, fluorescence polarization, C. elegans, dose response (AID 2802);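 also: fluorescence polarization of labeled TGE RNA bound by purified gld-1 protein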
# [3] = molecular target: T2, RNA-binding protein pos-1 (Caenorhabditis elegans, UniProt G5EF15); test: disruptors of C. elegans POS-1 RNA interaction – biochemical, fluorescence polarization, dose response (AID 1964);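 also: purified POS-1 fused to maltose binding protein made in E. coli; potency of compounds blocking POS-1 binding to fluorescent RNA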
# T2 sequence (G5EF15 whole entry): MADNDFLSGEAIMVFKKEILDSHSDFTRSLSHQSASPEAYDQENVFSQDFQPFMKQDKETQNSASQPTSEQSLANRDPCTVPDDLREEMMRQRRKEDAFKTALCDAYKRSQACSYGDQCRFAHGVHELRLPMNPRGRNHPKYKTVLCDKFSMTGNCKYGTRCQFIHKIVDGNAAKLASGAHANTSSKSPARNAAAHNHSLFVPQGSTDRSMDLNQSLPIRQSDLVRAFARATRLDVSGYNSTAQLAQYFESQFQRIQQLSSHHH
# [4] = molecular target: T3, Zinc finger protein mex-5 (Caenorhabditis elegans, UniProt Q9XUB2); test: potency of MEX-5 RNA-binding blockers – biochemical, C. elegans, fluorescence polarization, dose response (AID 1960)
# T3 sequence (Q9XUB2 whole entry): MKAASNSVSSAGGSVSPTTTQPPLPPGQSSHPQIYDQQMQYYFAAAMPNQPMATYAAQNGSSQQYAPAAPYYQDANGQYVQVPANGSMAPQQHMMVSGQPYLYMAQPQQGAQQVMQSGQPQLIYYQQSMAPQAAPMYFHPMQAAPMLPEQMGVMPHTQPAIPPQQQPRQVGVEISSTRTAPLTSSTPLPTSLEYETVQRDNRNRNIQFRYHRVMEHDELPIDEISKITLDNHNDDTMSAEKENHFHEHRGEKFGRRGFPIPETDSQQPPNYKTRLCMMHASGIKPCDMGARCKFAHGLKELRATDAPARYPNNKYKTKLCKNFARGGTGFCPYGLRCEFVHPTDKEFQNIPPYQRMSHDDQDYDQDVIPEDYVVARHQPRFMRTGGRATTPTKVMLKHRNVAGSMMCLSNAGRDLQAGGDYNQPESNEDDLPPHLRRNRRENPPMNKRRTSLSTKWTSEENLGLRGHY
# [5] = mRNA 3' processing disruption, beta-gal signal increase – luminescence, S. cerevisiae SKY197-pL101, dose response (AID 2525); type: functional, cell-based
# [6] = Luminescence Cell-Based Dose Confirmation HTS to Identify Inhibitors of Polyadenylation.; type: functional
# Trypanosoma cruzi = test: anti-trypanosomal activity in host cells – cell-based, plate reader, dry powder, set 3, dose response (AID 493197); type: functional
# [7] = molecular target: T4, Heat shock factor protein 1 (Mus musculus, UniProt P38532); test: decrease of HSF1-responsive luciferase luminescence – cell-based, NIH3T3, dose retest, confirmation (AID 2382); type: functional;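 also: NIH3T3 fibroblasts with HSF1-driven luciferase reporter stressed by proteasome inhibitor MG132; luminescence from HSF1-driven luciferase expression after 8 hours of MG132 stress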
# T4 sequence (P38532 whole entry): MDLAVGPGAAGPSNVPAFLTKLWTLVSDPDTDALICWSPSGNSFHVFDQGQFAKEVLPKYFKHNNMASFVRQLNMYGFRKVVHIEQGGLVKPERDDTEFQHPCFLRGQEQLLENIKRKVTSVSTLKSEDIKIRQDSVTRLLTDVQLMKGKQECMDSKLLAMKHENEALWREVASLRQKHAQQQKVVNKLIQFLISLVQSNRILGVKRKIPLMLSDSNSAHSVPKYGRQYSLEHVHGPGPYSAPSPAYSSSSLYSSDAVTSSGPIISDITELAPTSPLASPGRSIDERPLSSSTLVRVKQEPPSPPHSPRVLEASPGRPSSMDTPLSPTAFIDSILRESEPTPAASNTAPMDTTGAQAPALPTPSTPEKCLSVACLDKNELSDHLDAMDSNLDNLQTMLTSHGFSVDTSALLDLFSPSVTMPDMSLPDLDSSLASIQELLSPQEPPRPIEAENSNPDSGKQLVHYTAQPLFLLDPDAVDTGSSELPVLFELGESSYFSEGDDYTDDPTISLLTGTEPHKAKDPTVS
# [8] = molecular target: Dual specificity protein phosphatase 3 (Homo sapiens, UniProt P51452); test: inhibition constants for human DUSP3 – biochemical, colorimetric, SAR follow-up (AID 2004)
# Dual specificity protein phosphatase 3, sequence (P51452 whole entry): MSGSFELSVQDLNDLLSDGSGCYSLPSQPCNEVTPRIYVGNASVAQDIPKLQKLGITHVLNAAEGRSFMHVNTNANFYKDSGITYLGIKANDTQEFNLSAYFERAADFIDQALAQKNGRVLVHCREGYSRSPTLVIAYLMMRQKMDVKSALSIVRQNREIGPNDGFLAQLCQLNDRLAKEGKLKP
# [9] = molecular target: T5, Eukaryotic translation initiation factor 2-alpha kinase 3 (Homo sapiens, UniProt Q9NZJ5); test: Counterscreen assay for PERK inhibitors: Dose response cell-based high throughput screening assay to measure inhibition of PERK at 6 hours. [Related pubchem assays: 1522, 1416 ]; type: functional
# T5 sequence (Q9NZJ5 whole entry): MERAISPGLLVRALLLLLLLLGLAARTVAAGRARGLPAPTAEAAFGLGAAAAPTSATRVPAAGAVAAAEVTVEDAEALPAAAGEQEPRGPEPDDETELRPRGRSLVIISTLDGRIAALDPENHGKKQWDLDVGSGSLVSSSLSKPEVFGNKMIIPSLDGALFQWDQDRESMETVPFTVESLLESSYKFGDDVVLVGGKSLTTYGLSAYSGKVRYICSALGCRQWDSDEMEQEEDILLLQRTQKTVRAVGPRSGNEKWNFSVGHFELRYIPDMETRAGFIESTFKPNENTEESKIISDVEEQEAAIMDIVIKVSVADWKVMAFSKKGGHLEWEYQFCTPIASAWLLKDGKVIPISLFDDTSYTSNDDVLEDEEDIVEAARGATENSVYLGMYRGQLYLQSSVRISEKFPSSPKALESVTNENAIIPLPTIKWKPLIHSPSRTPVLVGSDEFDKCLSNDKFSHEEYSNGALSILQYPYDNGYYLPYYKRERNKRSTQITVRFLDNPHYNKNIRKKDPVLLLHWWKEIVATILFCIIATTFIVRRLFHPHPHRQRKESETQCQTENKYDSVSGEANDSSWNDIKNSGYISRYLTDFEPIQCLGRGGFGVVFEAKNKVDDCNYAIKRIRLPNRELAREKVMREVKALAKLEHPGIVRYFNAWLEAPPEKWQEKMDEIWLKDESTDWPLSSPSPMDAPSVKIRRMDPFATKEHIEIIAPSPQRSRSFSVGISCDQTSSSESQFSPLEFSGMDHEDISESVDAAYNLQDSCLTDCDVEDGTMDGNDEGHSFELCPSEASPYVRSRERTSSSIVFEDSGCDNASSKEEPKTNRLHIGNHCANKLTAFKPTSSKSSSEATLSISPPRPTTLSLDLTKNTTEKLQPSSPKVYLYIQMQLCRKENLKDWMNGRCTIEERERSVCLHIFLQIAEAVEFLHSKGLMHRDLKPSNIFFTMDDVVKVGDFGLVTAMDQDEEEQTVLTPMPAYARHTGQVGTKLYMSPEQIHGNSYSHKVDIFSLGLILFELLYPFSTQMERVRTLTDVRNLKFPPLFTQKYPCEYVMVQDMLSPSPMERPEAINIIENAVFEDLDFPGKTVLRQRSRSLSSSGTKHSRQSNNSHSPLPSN
# [10] = molecular target: T5, Eukaryotic translation initiation factor 2-alpha kinase 3; test: Dose response cell-based high-throughput screening assay to measure PERK inhibition. [Related pubchem assays: 1416 ]; type: functional
# Melanocortin receptor 4 = Melanocortin receptor 4 (Homo sapiens, UniProt P32245); test: inhibitors of MC4R cAMP signaling – cell-based, TR-FRET, biased antagonists, dose response (AID 602298); type: functional;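 also: antagonist potency against agonist-stimulated cAMP production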
# Melanocortin receptor 4, sequence (P32245 whole entry): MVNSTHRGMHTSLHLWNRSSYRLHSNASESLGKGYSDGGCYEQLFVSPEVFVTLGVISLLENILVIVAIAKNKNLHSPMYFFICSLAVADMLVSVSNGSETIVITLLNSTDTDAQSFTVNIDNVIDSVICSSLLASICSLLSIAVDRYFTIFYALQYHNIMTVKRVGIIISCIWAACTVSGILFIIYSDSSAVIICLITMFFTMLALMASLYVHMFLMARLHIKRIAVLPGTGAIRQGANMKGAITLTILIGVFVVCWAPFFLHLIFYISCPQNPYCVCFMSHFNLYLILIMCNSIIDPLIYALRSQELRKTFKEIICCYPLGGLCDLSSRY
# [11] = molecular target: Photoreceptor-specific nuclear receptor (Homo sapiens, UniProt Q9Y5X4); type: functional;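 also: potency for compounds that break the NR2E3 corepressor complex and count as activators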
# [12] = molecular target: Peroxisome proliferator-activated receptor gamma/Nuclear receptor corepressor 2 (Homo sapiens, UniProt P37231+Q9Y618); type: functional
# [13] = cAMP pathway inhibition in counterscreen cell line – TR-FRET cAMP detection, counter-screen for MC4R biased antagonist project, dose response (AID 602305); type: functional, cell-based;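 also: U2OS cells stimulated with forskolin near its EC80 as the cAMP inducer; potency is for inhibition of forskolin-stimulated cAMP signaling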
# Cytochrome P450 2C19 = Cytochrome P450 2C19 (Homo sapiens, UniProt P33261); test: qHTS Assay for Inhibitors and Substrates of Cytochrome P450 2C19. [Related pubchem assays: 410 ]; type: ADME; conditions: read-out: Potency
# Cytochrome P450 2C19, sequence (P33261 whole entry): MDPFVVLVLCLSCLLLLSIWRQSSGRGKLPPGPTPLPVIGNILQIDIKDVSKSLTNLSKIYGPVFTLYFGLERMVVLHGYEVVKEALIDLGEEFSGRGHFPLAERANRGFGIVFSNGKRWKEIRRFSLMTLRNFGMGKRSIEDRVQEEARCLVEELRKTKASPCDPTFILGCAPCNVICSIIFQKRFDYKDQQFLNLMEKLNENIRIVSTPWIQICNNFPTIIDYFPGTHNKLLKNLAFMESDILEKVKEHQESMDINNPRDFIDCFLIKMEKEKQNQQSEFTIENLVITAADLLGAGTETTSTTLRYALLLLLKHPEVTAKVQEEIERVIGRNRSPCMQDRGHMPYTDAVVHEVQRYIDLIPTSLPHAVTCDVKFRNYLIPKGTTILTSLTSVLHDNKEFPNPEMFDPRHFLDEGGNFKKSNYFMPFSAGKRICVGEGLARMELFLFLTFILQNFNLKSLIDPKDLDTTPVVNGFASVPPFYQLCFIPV
# Cytochrome P450 2C9 = Cytochrome P450 2C9 (Homo sapiens, UniProt P11712); conditions: Potency
# Cytochrome P450 2C9, sequence (P11712 whole entry): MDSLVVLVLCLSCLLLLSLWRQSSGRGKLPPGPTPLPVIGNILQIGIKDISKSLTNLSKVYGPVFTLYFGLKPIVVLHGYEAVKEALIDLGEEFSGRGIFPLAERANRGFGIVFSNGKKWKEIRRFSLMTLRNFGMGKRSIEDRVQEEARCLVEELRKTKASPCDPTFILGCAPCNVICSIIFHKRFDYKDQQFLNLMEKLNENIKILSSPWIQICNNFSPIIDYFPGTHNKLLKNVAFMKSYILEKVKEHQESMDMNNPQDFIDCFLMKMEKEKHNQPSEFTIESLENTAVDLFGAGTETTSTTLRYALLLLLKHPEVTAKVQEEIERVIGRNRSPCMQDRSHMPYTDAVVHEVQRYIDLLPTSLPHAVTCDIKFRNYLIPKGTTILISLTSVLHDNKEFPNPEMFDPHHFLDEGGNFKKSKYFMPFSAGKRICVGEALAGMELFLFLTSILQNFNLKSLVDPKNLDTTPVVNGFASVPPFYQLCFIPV
# [14] = Trypanosoma cruzi growth suppression in host cells – NIH3T3 host cells, beta-gal luminescence, confirmation (AID 2044); type: functional, cell-based;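 also: intracellular parasites grown in NIH/3T3 mouse fibroblasts as host cells; luminescent beta-galactosidase reporter signal from transgenic T. cruzi replicating inside host cells; inhibitors lower the luminescence signal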
# [15] = molecular target: Polyadenylate-binding protein 1 (Homo sapiens, UniProt P11940); test: blockers of PABP interaction with poly(A) – biochemical, fluorescence polarization, […] (AID 2014)
# Polyadenylate-binding protein 1, sequence (P11940 whole entry): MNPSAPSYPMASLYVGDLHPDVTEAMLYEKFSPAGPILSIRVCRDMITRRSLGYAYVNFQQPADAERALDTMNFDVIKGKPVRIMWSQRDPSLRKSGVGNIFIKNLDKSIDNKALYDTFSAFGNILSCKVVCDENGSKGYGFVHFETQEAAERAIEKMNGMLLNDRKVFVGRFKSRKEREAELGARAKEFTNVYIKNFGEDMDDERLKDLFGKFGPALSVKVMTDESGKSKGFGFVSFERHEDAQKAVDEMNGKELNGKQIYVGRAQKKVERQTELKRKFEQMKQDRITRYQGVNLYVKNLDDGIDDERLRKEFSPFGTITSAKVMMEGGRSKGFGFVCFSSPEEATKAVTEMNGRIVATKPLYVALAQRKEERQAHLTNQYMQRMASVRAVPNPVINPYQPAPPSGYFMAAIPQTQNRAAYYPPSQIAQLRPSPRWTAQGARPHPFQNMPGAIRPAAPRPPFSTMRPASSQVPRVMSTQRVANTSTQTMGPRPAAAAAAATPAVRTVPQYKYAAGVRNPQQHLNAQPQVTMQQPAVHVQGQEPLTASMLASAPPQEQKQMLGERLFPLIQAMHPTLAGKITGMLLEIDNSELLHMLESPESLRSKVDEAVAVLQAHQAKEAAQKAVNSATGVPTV
# [16] = molecular target: Eukaryotic translation initiation factor 4H (Homo sapiens, UniProt Q15056); test: eIF4H binding inhibition – biochemical, uHTS, fluorescence polarization, translation initiation inhibitor project, primary screen (AID 2012)
# [17] = NIH3T3 cell viability loss – ATP luminescence, mouse fibroblasts, counter-screen, dose response (AID 2010); type: functional, cell-based;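 also: cells exposed to compound for about 90 hours before reading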
# [18] = molecular target: Melanin-concentrating hormone receptor 1 (Homo sapiens, UniProt Q99705); test: Late-stage fluorescence-based counterscreen for antagonists of the G-protein coupled receptor 7 (GPR7): cell-based dose response assay to identify antagonists of the melanin-concentrating hormone receptor 1 (MCHR1). [Related pubchem assays (depositor defined):AID1861, AID1880, AID1952, AID2148, AID2251, AID2257, AID485339]; type: functional;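 also: stimulated with 30 nM MCH peptide agonist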
# [19] = molecular target: Lysosomal acid glucosylceramidase (Homo sapiens, UniProt P04062); test: Dose response cell-based high throughput screening assay to identify enhancers of beta-glucosidase activity. [Related pubchem assays: 784 ]; type: functional
# Lysosomal acid glucosylceramidase, sequence (P04062 whole entry): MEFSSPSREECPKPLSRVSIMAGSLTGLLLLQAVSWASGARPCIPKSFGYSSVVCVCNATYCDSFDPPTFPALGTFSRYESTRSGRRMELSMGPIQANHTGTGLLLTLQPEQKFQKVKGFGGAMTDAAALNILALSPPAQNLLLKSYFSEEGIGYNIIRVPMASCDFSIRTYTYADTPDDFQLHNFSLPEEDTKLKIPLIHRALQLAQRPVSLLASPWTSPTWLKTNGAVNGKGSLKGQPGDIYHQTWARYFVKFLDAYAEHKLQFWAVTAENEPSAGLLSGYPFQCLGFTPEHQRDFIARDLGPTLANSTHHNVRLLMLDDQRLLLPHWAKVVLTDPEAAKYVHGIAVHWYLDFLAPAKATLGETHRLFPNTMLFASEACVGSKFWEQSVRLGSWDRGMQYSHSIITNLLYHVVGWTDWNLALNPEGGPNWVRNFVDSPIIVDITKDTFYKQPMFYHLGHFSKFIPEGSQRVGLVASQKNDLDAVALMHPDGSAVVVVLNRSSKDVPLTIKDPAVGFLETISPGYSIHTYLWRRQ
# Cytochrome P450 3A4 = Cytochrome P450 3A4 (Homo sapiens, UniProt P08684); conditions: Potency;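 also: confirmatory qHTS run detecting inhibitors and substrates of CYP3A4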
# Metabotropic glutamate receptor 4, sequence (P31423 whole entry): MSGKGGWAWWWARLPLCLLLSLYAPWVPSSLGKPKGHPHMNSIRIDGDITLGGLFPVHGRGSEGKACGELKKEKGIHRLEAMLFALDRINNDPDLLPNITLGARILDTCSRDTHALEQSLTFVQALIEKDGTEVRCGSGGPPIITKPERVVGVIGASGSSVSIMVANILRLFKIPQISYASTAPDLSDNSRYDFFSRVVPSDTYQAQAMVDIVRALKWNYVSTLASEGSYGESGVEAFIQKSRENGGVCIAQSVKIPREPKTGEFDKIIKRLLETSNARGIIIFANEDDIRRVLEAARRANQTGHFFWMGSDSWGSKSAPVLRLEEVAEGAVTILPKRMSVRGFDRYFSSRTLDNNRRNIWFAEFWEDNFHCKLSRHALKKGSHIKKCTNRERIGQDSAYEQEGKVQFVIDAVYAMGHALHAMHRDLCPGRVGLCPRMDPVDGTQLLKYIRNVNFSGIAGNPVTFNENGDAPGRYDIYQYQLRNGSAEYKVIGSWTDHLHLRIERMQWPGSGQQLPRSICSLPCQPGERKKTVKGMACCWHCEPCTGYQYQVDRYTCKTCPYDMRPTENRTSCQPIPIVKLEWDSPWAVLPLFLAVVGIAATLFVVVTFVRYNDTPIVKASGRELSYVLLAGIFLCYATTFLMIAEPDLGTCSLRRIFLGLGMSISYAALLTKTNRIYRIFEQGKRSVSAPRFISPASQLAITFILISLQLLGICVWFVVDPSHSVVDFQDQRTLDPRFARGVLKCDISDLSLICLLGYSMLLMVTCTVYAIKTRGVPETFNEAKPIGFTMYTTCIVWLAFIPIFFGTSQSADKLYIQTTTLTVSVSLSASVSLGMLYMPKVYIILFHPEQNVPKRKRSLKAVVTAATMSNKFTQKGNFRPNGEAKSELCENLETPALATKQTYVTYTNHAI
structure (smiles),measurement,setting,value
O=C(Nc1ccc(N2C(=O)c3cccc(Cl)c3C2=O)c(Cl)c1)c1ccccn1,EC50,[1],0.03 µM (active)
COC(=O)c1cc(N2CCN(C)CC2)nc2ccccc12,AC50,Salmon testes DNA,137 µM (active)
same,AC50,ORF 73,59.9 µM (active)
O=C1CS/C(=C\[N+](=O)[O-])N1c1ccccc1,IC50,Protein Rev,3.03 µM (active)
same,IC50,[2],> 59.6 µM (inactive)
same,EC50,[3],> 300 µM (not active)
same,EC50,[4],190 µM (active)
N#CC1(C#N)C2=C(CCCC2)NC(c2ccccc2)C1(C#N)C#N (configuration not stated),EC50,[5],3.77 µM (active)
same,EC50,[6],7.92 µM (active)
CN(Cc1ccccc1)C(=O)C1CCCN(Cc2ccc([N+](=O)[O-])cc2)C1 (configuration not stated),AC50,Trypanosoma cruzi,7.63 µM (active)
Cc1ccc(S(=O)(=O)N2CCN(C(=O)c3cccc(F)c3)CC2)cc1,EC50,[7],> 195 µM (not active)
same,Ki,[8],39.4 µM (inactive)
O=C(NNc1ccccc1F)c1ccccc1,EC50,[9],> 55.7 µM (not active)
same,EC50,[10],> 55.7 µM (not active)
O=C(O)c1cc(-c2ccc3c(c2)OCO3)nc2ccc(Br)cc12,IC50,Melanocortin receptor 4,35.7 µM (inactive)
same,IC50,[11],> 39.8 µM (not active)
same,IC50,[12],1.76 µM (active)
same,IC50,[13],> 64.6 µM (inactive)
CCCC[C@@H]1C[C@H]1C(NP(=O)(c1ccccc1)c1ccccc1)c1ccc(Cl)cc1 (some centres not stated),AC50,Cytochrome P450 2C19,10 µM (inconclusive)
same,AC50,Cytochrome P450 2C9,15.8 µM (inconclusive)
COc1ccc(N=C(C)N(C)CCNS(=O)(=O)c2ccc(Cl)cc2)cc1Cl,EC50,[14],0.271 µM (active)
same,IC50,[15],5.82 µM (active)
same,IC50,[16],> 100 µM (inactive)
same,EC50,[17],> 60 µM (not active)
Cc1ccc(-n2ncc(Cl)c(Oc3ccc(F)cc3F)c2=O)cc1,IC50,[18],17.4 µM (inactive)
CCC(C)n1cnc2c(c1=O)c1nc3ccccc3nc1n2Cc1ccc2c(c1)OCO2 (configuration not stated),EC50,[19],> 10 µM (not active)
"COc1ccc(-c2coc3c(OC)c(OC)cc(O)c3c2=O)cc1 [ISOTECTORIGENIN, 7-METHYL ETHER]",AC50,Cytochrome P450 3A4,39.8 µM (inconclusive)
